Results on two compounds are retold here after US20140248291A1, “Modulation of Cellular Migration” (THE UAB RESEARCH FOUNDATION, priority 2011, published 2014).

Structures are written as SMILES.

Holding throughout (assay type): cell-based, human
Test [1] has as its system D54-MG-GFP cells. Kind of test: time-lapse motility assay in BK concentration gradient, D54-MG-GFP. The following applies: for cells moved towards increasing BK concentration: BK gradient in presence of antagonist, cells moving in random fashion; for directionality of movement: antagonist in addition to BK.
Procedure: Time-lapse studies were performed using a stably transfected daughter cell line from D54-MG cells that express EGFP, previously generated in the lab (Habela et al., 2009) and U251-EGFP cell line to visualize cells as they migrate. Increased motility was tested using an Ibidi chemotaxis chamber that is commercially available from Ibidi Scientific (Ibidi GmbH, Martinsried, Germany), and which has been used in previous studies (Kronlage et al., 2010; Fabian et al., 2010) with D54-EGFP MG cells seeded. Liquid chemical gradients were established in the μ-channel of the μ-chamber as follows: the dye Patent Blue V Blue Sodium Salt (1 mg/ml in medium) was mixed with equivolume of medium+/−1 mM stock of BK+/−1 mM stocks of HOE-140 or BZ; half of the volume was loaded in the well at one side of the μ-channel, and the identical volume was then aspirated from the well on the other side of the μ-channel. This created concentration gradient easily visualized by the dye. 12-15 different positions along the concentration gradient were imaged every 5 minutes over 5 hours period on a Zeiss Axiovert 200M system equipped with a Zeiss micro-incubation chamber that maintains cells at constant temperature (37° C.) and 95%/5% CO2/O2 for extended periods of time. We obtained images from different sections using 20× objective and FITC filter, along with DIC images. 500× neutral density filters and capture images using Axiovision software and a digital Axiocam HR 1 megapixel camera in 2*2 binning mode was used. Data was analyzed using the imaging tools provided by National Institutes of Health Image J and Tracking, and Chemotaxis and Migration Tool plugins (Jacobelli et al., 2009; Coller et al., 2009; Kronlage et al., 2010; Fabian et al., 2010) by randomly selecting 15 cells for each field of view. Cells treated with BK+/−antagonists were compared with controls where only dye was added. These experiments were repeated in triplicates.
As calcium dynamics are often correlated with cell motility time-lapse studies were performed using a stably transfected daughter cell line from D54-MG cells that expresses GFP to visualize cells as they migrate (FIG. 3A). Increased motility was tested in μ-slides in which a BK concentration gradient can be maintained.
The subject of test [2] is D54-MG-GFP glioma cells. Description: Transwell migration assay. The following applies: antagonist 1 μM with BK, 5 h. The method, then:
The day before the experiment was performed, ˜70% confluent dishes of cells were prepared. Transwell migration Fluoroblock cell culture inserts (BD Biosciences, San Jose, Calif.) with 8 μm pores were coated overnight with Vitronectin (BD Biosciences, San Jose, Calif.) at a concentration of 5 μg/ml in PBS. The following day, inserts were blocked with 1% fatty acid-free bovine serum albumin for 1 h. Inserts were then washed two times in PBS, and 400 μl of Migration Assay Buffer (MAB, 0.1% fatty acid-free bovine serum albumin in serum-free media) was added to the bottom of each well. Cells were rinsed once in PBS and were lifted off the dish by the addition of 0.5 mm EGTA. Cells were rinsed twice by centrifugation and resuspended in MAB and counted. Forty thousand cells were plated on the top of each filter and allowed to adhere for 30 min before drug was added. When BK+/−antagonists was added to the filters, it was added only to the bottom of the filter for chemotaxis. For migration assay, D54-EGFP MG cells were allowed to migrate for 5 hours, washed with PBS, fixed with 4% paraformaldehyde 15 minutes at room temperature, washed thrice and counterstained with DAPI for 5 minutes at room temperature. Invasion assay was performed similarly. Matrigel cell cultured inserts (BD Biosciences, San Jose, Calif.) with 8 μm pores were pretreated Vitronectin and blocked as described above. […] The number of nuclei that migrated through pores was counted. All counts per treatment were averaged and SE values were calculated. […]
To investigate the hypothesis that BK promotes glioma migration in vitro, we used Transwell migration assay which conveniently permit examination of cell migration across a membrane barrier with 8 μm pores towards vitronectin, a chemo-attractant extracellular matrix protein. This frequently used assay allows a quantitative study of drug effects with regards to drugs acting as motogens or as chemo-attractants. […]

For test [3], the system named is MMP gelatinase activity of D54 MG cells. Kind of test: in-situ zymography of gelatinolytic MMP activity (DQ gelatin). Particulars: BK plus B2R antagonist. Here is the method: To assess gelatinolytic MMP activity we used in situ zymography, as described previously (Deshane J et al, 2003). Briefly, after cell nuclei were labeled with Hoechst dye, fluorescein isothiocyanate-labeled DQ gelatin with BK+/−antagonists (Molecular Probes, Eugene, Oreg.) was applied overnight on the coverslips plated with D54 MG cells. Coverslips where drugs were omitted were processed in parallel and used as controls. At the end of the incubation period, cells were photographed by fluorescence microscopy with a Zeiss Axiovert 200 M microscope using a 20× objective. Quantification of fluorescent staining intensity after background subtraction was done using Slidebook 4.2 software (Intelligent Imaging Innovations, Denver, Colo.). Experiments were repeated three times.
To investigate the hypothesis that BK promotes glioma migration in vitro, we used Transwell migration assay which conveniently permit examination of cell migration across a membrane barrier with 8 μm pores towards vitronectin, a chemo-attractant extracellular matrix protein. This frequently used assay allows a quantitative study of drug effects with regards to drugs acting as motogens or as chemo-attractants. D54-MG-GFP glioma cells were allowed to migrate for 5 h in the presence/absence of neuroligands. […] Next, we tested glioma cell migration in various BK concentrations. […]

Consider `CN(C)CCN(C)CCNC(=O)[C@@H]1CCCN1S(=O)(=O)c1ccc(NNC(=S)NC(c2ccccc2)c2ccccc2)c([N+](=O)[O-])c1` [Bradyzide], for which, in test [1], the “cells moved towards increasing BK concentration” value is recorded as 6/15 and the directionality of movement entry is “failed to show any directionality of movement”. The “BK-induced increase in cells migrating through the pores” value in test [2] is “eliminated”. Further, in test [3], the “MMP activity (fluorescence of DQ gelatin)” value is listed as “reduction of the fluorescence back to control levels”.

On to `N=C(N)NCCCC(NC(=O)[C@H](N)CCCNC(=N)N)C(=O)N1CCC[C@H]1C(=O)N1C[C@H](O)C[C@H]1C(=O)NCC(=O)N[C@@H](Cc1cccs1)C(=O)N[C@@H](CO)C(=O)N1Cc2ccccc2C[C@@H]1C(=O)N1C2CCCCC2C[C@H]1C(=O)N[C@H](CCCNC(=N)N)C(=O)O` (stereo partly drawn) [HOE-140, D-Arg-[Hyp^3, Thi^5, D-Tic^7, Oic^8]bradykinin], for which, in test [1], the “cells moved towards increasing BK concentration” value is 8/15 and the directionality of movement entry is given as “failed to show any directionality of movement”. Besides, the “BK-induced increase in cells migrating through the pores” value in test [2] is recorded as “eliminated”. Further, the “MMP activity (fluorescence of DQ gelatin)” value in test [3] is on record as “reduction of the fluorescence back to control levels”.
